The series can be described thus: Solubility in aqueous Tris-buffer. The format is physicochemical. Particulars: diluted from ethanol stock, read-out: solubility limit in aqueous Tris-buffer conditions.

Residues, ends and D or L forms follow the SMILES beside them. *: point of attachment. Palmitoyl = CCCCCCCCCCCCCCCC(=O)* Where only a bound is given, the exact number is not on record here.

For orientation: solubility means the concentration that dissolves in the medium under given conditions.

As for `CCCCCCCCCCCCCCCC(=O)N[C@@H](CCC(N)=O)C(=O)N[C@@H](CCCNC(=N)N)C(=O)N[C@@H](Cc1ccccc1)C(=O)N[C@@H](CO)C(=O)N[C@@H](CCCNC(=N)N)C(N)=O` [Pal-QRFSR-NH2, palmitoyl-QRFSR-NH2] (Palmitoyl-QRFSR-NH2), the solubility is not above 70 µM.

For the origin of these results see US20100062052A1, “PEPTIDE-BASED COMPOUNDS AS NEW INHIBITORS OF METALLOECTOPEPTIDASES, COMPOSITIONS COMPRISING SAID COMPOUNDS AND THEIR PHARMACEUTICAL AND COSMETIC USES” (GREENPHARMA, priority 2007, published 2010).
